In patent publication US8030498B2, “Benzoylpyrazole compounds and herbicides containing them” (Ishihara Sangyo Kaisha, Ltd., priority 2005, dated 2011):

What was measured:
[1] = test system: rice; test: Test Example 2: soil application on the day after sowing, growth inhibition rate, rice; assay type: in vivo, Oryza sativa L.; conditions: 250 g/ha active ingredient, observed on 19th to 24th day
Text: (§1) Upland field soil was put into a 1/170,000 hectare pot, and seeds of various plants (barnyardgrass, crabgrass, greenfoxtail, redroot pigweed, prickly sida, velvetleaf, rice, wheat, corn and soybean) were sown. On the day after sowing, wettable powders or emulsifiable concentrates of the compounds of the present invention prepared in accordance with a conventional preparation method, were weighed so that the active ingredients became the prescribed amounts, and diluted with water in an amount corresponding to 500 liter per 1 hectare, followed by soil application with a small sprayer. On the 19th to 24th day after the application, the state of growth of the respective plants was visually observed, and the herbicidal effect was evaluated in accordance with a growth inhibition rate (%) of from 0 (equivalent to the non-treated area) to 100% (complete kill).

[2] = test system: barnyardgrass; test: Test Example 2: soil application on the day after sowing, growth inhibition rate, barnyardgrass; assay type: in vivo, Echinochloa crus-galli L.; conditions: 250 g/ha active ingredient, observed on 19th to 24th day
Text: as §1

[3] = test system: greenfoxtail; test: Test Example 2: soil application on the day after sowing, growth inhibition rate, greenfoxtail; assay type: in vivo, Setaria viridis L.; conditions: 250 g/ha active ingredient, observed on 19th to 24th day
Text: as §1

[4] = test system: soybean (Glycine max Merr.); test: Test Example 1: foliar treatment, growth inhibition rate, soybean; assay type: in vivo; conditions: 31 g/ha active ingredient, visually observed 17th to 23rd day after application
Text: (§2) Upland field soil was put into a 1/170,000 hectare pot, and seeds of various plants were sown. When the respective plants reached predetermined leaf stage ((1) barnyardgrass (Echinochloa crus-galli L.); 0.8 to 2.5 leaf stage, (2) crabgrass (Digitaria sanguinalis L.): 0.5 to 3.0 leaf stage, (3) greenfoxtail (Setaria viridis L.): 1.0 to 3.0 leaf stage, (4) redroot pigweed (Amaranthus retroflexus L.): cotyledon stage to 2.0 leaf stage, (5) prickly sida (Sida spinosa L.): cotyledon stage to 1.1 leaf stage, (6) velvetleaf (Abutilon theophrasti MEDIC.): cotyledon stage to 1.5 leaf stage, (7) rice (Oryza sativa L.): 1.0 to 2.5 leaf stage, (8) wheat (Triticum spp.): 1.7 to 3.4 leaf stage, (9) corn (Zea mays L.): 2.0 to 3.5 leaf stage, and (10) soybean (Glycine max Merr.): primary leaf stage to 0.3 leaf stage), wettable powders or emulsifiable concentrates of the compounds of the present invention prepared in accordance with a conventional preparation method, were weighed so that the active ingredients became the prescribed amounts, and diluted with water in an amount corresponding to 500 liter per 1 hectare. 0.1 vol % of an agricultural spreader was further added to the respective diluted liquids, followed by foliar treatment with a small sprayer.
(§3) On the 17th to 23rd day after application, the state of growth of the respective plants was visually observed, and the herbicidal effect was evaluated in accordance with a growth inhibition rate (%) of 0 (equivalent to the non-treated area) to 100% (complete kill).

[5] = test system: greenfoxtail (Setaria viridis L.); test: Test Example 1: foliar treatment, growth inhibition rate, greenfoxtail; assay type: in vivo; conditions: 31 g/ha active ingredient, visually observed 17th to 23rd day after application
Text: as §2, §3

[6] = test system: crabgrass; test: Test Example 2: soil application on the day after sowing, growth inhibition rate, crabgrass; assay type: in vivo, Digitaria sanguinalis L.; conditions: 250 g/ha active ingredient, observed on 19th to 24th day
Text: as §1

[7] = test system: corn; test: Test Example 2: soil application on the day after sowing, growth inhibition rate, corn; assay type: in vivo, Zea mays L.; conditions: 250 g/ha active ingredient, observed on 19th to 24th day
Text: as §1

[8] = test system: prickly sida (Sida spinosa L.); test: Test Example 1: foliar treatment, growth inhibition rate, prickly sida; assay type: in vivo; conditions: 31 g/ha active ingredient, visually observed 17th to 23rd day after application
Text: as §2, §3

[9] = test system: prickly sida; test: Test Example 2: soil application on the day after sowing, growth inhibition rate, prickly sida; assay type: in vivo, Sida spinosa L.; conditions: 250 g/ha active ingredient, observed on 19th to 24th day
Text: as §1

[10] = test system: corn (Zea mays L.); test: Test Example 1: foliar treatment, growth inhibition rate, corn; assay type: in vivo; conditions: 31 g/ha active ingredient, visually observed 17th to 23rd day after application
Text: as §2, §3

[11] = test system: rice (Oryza sativa L.); test: Test Example 1: foliar treatment, growth inhibition rate, rice; assay type: in vivo; conditions: 31 g/ha active ingredient, visually observed 17th to 23rd day after application
Text: as §2, §3

[12] = test system: crabgrass (Digitaria sanguinalis L.); test: Test Example 1: foliar treatment, growth inhibition rate, crabgrass; assay type: in vivo; conditions: 31 g/ha active ingredient, visually observed 17th to 23rd day after application
Text: as §2, §3

[13] = test system: velvetleaf (Abutilon theophrasti MEDIC.); test: Test Example 1: foliar treatment, growth inhibition rate, velvetleaf; assay type: in vivo; conditions: 31 g/ha active ingredient, visually observed 17th to 23rd day after application
Text: as §2, §3

[14] = test system: soybean; test: Test Example 2: soil application on the day after sowing, growth inhibition rate, soybean; assay type: in vivo, Glycine max Merr.; conditions: 250 g/ha active ingredient, observed on 19th to 24th day
Text: as §1

[15] = test system: velvetleaf; test: Test Example 2: soil application on the day after sowing, growth inhibition rate, velvetleaf; assay type: in vivo, Abutilon theophrasti MEDIC.; conditions: 250 g/ha active ingredient, observed on 19th to 24th day
Text: as §1

[16] = test system: redroot pigweed (Amaranthus retroflexus L.); test: Test Example 1: foliar treatment, growth inhibition rate, redroot pigweed; assay type: in vivo; conditions: 31 g/ha active ingredient, visually observed 17th to 23rd day after application
Text: as §2, §3

[17] = test system: wheat (Triticum spp.); test: Test Example 1: foliar treatment, growth inhibition rate, wheat; assay type: in vivo; conditions: 31 g/ha active ingredient, visually observed 17th to 23rd day after application
Text: as §2, §3

[18] = test system: barnyardgrass (Echinochloa crus-galli L.); test: Test Example 1: foliar treatment, growth inhibition rate, barnyardgrass; assay type: in vivo; conditions: 31 g/ha active ingredient, visually observed 17th to 23rd day after application
Text: as §2, §3

[19] = test system: redroot pigweed; test: Test Example 2: soil application on the day after sowing, growth inhibition rate, redroot pigweed; assay type: in vivo, Amaranthus retroflexus L.; conditions: 250 g/ha active ingredient, observed on 19th to 24th day
Text: as §1

Compound	Growth inhibition rate (%) Rice [1] [%]	Growth inhibition rate (%) Barnyardgrass [2] [%]	Growth inhibition rate (%) Greenfoxtail [3] [%]	Growth inhibition rate (%) Soybean [4] [%]	Growth inhibition rate (%) Greenfoxtail [5] [%]	Growth inhibition rate (%) Crabgrass [6] [%]	Growth inhibition rate (%) Corn [7] [%]	Growth inhibition rate (%) Prickly sida [8] [%]	Growth inhibition rate (%) Prickly sida [9] [%]	Growth inhibition rate (%) Corn [10] [%]	Growth inhibition rate (%) Rice [11] [%]	Growth inhibition rate (%) Crabgrass [12] [%]	Growth inhibition rate (%) Velvetleaf [13] [%]	Growth inhibition rate (%) Soybean [14] [%]	Growth inhibition rate (%) Velvetleaf [15] [%]	Growth inhibition rate (%) redroot pigweed [16] [%]	Growth inhibition rate (%) Wheat [17] [%]	Growth inhibition rate (%) Barnyardgrass [18] [%]	Growth inhibition rate (%) redroot pigweed [19] [%]
CCn1ncc(C(=O)c2ccc(S(C)(=O)=O)c(OCCOC)c2C)c1OC(=O)SC [compound 234]	100	100	100	100	100	100	0	50	20	0	90	100	100	0	70	100	0	100	100
CCOCCOc1c(S(C)(=O)=O)ccc(C(=O)c2cnn(C)c2OC(=O)SCC)c1C [compound 77]	–	–	–	95	98	95	0	70	–	10	70	98	80	–	40	95	0	98	90
CCSC(=O)Oc1c(C(=O)c2ccc(S(C)(=O)=O)c(COCCOC)c2C)cnn1C [compound 76]	–	–	–	95	80	100	0	65	–	30	60	98	75	–	30	90	0	98	90
CCSC(=O)Oc1c(C(=O)c2ccc(S(C)(=O)=O)c(COC)c2Cl)cnn1C [compound 42]	–	–	–	95	95	100	0	90	–	0	90	98	95	–	70	100	0	100	100
CCSC(=O)Oc1c(C(=O)c2ccc(S(C)(=O)=O)c(OCC(C)OC)c2C)cnn1C (stereo not drawn) [compound 189]	100	100	100	98	98	100	0	70	100	0	90	95	100	10	100	–	–	95	100
